Measurements reported in BigSolDB 2.1.

CC(=O)O[C@H]1NC(=O)[C@@H]1[C@@H](C)O[Si](C)(C)C(C)(C)C
solubility (mole fraction)
Conditions | 293.15 K | 298.15 K | 303.15 K | 308.15 K | 313.15 K | 318.15 K | 323.15 K | 328.15 K | 333.15 K
in THF | 0.238 | 0.242 | 0.251 | 0.264 | 0.278 | 0.3 | 0.323 | 0.342 | 0.368
in acetone | 0.147 | 0.166 | 0.186 | 0.203 | 0.218 | 0.233 | 0.244 | 0.254 | 0.259
in acetonitrile | 0.0493 | 0.0629 | 0.0792 | 0.0963 | 0.114 | 0.132 | 0.15 | 0.166 | 0.184
in chloroform | 0.258 | 0.266 | 0.276 | 0.291 | 0.308 | 0.325 | 0.347 | 0.371 | 0.403
in cyclohexane | 0.0028 | 0.00408 | 0.00582 | 0.00838 | 0.0116 | 0.0163 | 0.0223 | 0.0306 | 0.0413
in ethanol | 0.0492 | 0.0601 | 0.072 | 0.0859 | 0.104 | 0.121 | 0.145 | 0.17 | 0.2
in ethyl acetate | 0.159 | 0.179 | 0.198 | 0.216 | 0.24 | 0.264 | 0.294 | 0.326 | 0.356
in methanol | 0.0593 | 0.069 | 0.0809 | 0.0959 | 0.113 | 0.134 | 0.161 | 0.193 | 0.233
in n-butyl acetate | 0.13 | 0.145 | 0.163 | 0.18 | 0.199 | 0.221 | 0.251 | 0.288 | 0.326
in n-hexane | 0.00287 | 0.00411 | 0.00577 | 0.00813 | 0.0116 | 0.0161 | 0.022 | 0.0305 | 0.0422
in toluene | 0.0796 | 0.096 | 0.116 | 0.141 | 0.163 | 0.186 | 0.209 | 0.238 | 0.265
